{"source": "patent US11235001B2", "about": "“RUNX inhibitor” (KYOTO UNIVERSITY, priority 2016, dated 2022)", "key": {"MYL cells": {"tested_on": "MYL cells", "experiment": "PI-AnnexinV apoptosis staining, MYL cells", "format": "cell-based, human", "settings": "1.5 μM or 3 μM, 48 hours, dependent on concentration", "method": "In addition, 1.5 μM or 3 μM of Chb-M′ was administered to MYL cells. After 48 hours, the percentage of apoptosis was analyzed by PI-AnnexinV apoptosis staining. As a result, early apoptosis rates were increased dependent on the concentration of Chb-M′ (FIG. 26-4)."}, "MV4-11 cells": {"tested_on": "MV4-11 cells", "experiment": "Xenograft AML mouse model (MV4-11)", "format": "in vivo", "settings": "NOG mice with MV4-11, day 14"}, "CD62E (E-selectin)": {"tested_on": "CD62E (E-selectin)", "experiment": "FACS of cell surface CD62E (E-selectin) in HUVEC", "format": "cell-based, human", "settings": "1 μM, 24 hours", "method": "Using HUVEC, changes in expression levels of E-selectin by the RUNX inhibitor and RUNX knockdown were analyzed by FACS (fluorescence-activated cell sorter). To HUVEC, 1 μM of Chb-M′ was administered. After 24 hours, different antibodies were used for immunostaining and changes in the cell surface expression of CD62E (E-selectin) were measured. As a control, DMSO was administered. In addition, HUVEC in which RUNX1 gene expression was knockdown by sh_RUNX1 #2 were immunostained using different antibodies to measure changes in the cell surface expression of CD62E (E-selectin). As a control, the cells were knockdown by a siRNA targeting luciferase (sh_Luc.). As the antibodies, an anti-human CD62E (E-selectin) antibody (manufactured by eBioscience) and an isotype antibody (mouse IgG1) of anti-human CD62E (E-selectin) antibody (manufactured by eBioscience) were used."}, "BCR-ABL gene": {"tested_on": "BCR-ABL gene", "experiment": "qRT-PCR of BCR-ABL gene in CML and PhALL cells", "format": "cell-based, human", "settings": "3 μM or 1 μM, 6 hours", "method": "A total RNA was isolated with RNeasy mini kit (Qiagen) and reverse transcribed with Reverse script kit (TOYOBO) to generate cDNA. Real-time quantitative polymerase chain reaction (PCR) was carried out with 7500 Real-Time PCR System (Applied Biosystems) according to the manufacturer's instructions. Results were normalized to GAPDH levels. Relative expression levels were calculated using the 2-ΔΔCt method.\nTo BV173 cells, MYL cells, SU-Ph2 cells, and SU/SR cells, 3 μM or 1 μM of Chb-M′ was administered. After 6 hours, a total RNA was extracted from the cells, and then subjected to qRT-PCR (see the above-described “Real-time quantitative PCR (qRT-PCR)”) to quantify the expression levels of BCR-ABL gene. As a control, DMSO was administered. In the figures, the expression levels are shown as values relative to the mRNA level of p210BCR-ABL or the mRNA level of p190BCR-ABL in the DMSO (control)-administered group."}, "PC-3 cells": {"tested_on": "PC-3 cells", "settings": "read-out: IC50 (μM) in PC-3 cells; PC-3 (p53null/PTEN del/androgen-independent), 48 hours"}, "LNCaP cells": {"tested_on": "LNCaP cells", "settings": "read-out: IC50 (μM) in LNCaP cells; LNCaP (androgen-dependent), 48 hours"}, "BCR-ABL fusion protein": {"tested_on": "BCR-ABL fusion protein", "experiment": "Western blotting of BCR-ABL fusion protein in CML and PhALL cells", "format": "cell-based, human", "settings": "3 μM or 1 μM, 24 hours", "method": "Cells were washed twice with ice cold phosphate-buffered saline (PBS) and harvested in protein lysis buffer [50 mM Tris (pH 7.4), 100 mM NaCl, 0.1 mM EDTA, 1 mM phenylmethylsulfonyl fluoride, 1 mM β-glycerophosphate, 2.5 mM sodium pyrophosphate, 1 mM Na3VO4, lx protease inhibitor (Roche) and PhosSTOP (Roche)]. Whole cell extracts were separated by SDS-polyacrylamide gel electrophoresis (SDS-PAGE) and electrotransferred onto polyvinylidene difluoride membranes. Membranes were probed with the following antibodies: anti-Ctip1 antibody (Abcam, ab19487), anti-TRIM24 antibody (Bethyl Laboratories, Inc), anti-RUNX1 antibody (A-2), anti-GAPDH (FL-335), anti-p21 (C-19), anti-Bax (N-20) antibodies (Santa Cruz Biotechnology, Inc.), anti-RUNX2, anti-RUNX3, anti-p53 antibodies (Cell Signaling Technology), anti-CBFβ antibody (FL-182, Santa Cruz Biotechnology, Inc.), anti-cleaved caspase-3 antibody (5A1E, Cell Signaling Technology), anti-PARP antibody (46D11, Cell Signaling Technology). For secondary antibodies, anti-rabbit IgG, or anti-mosue IgG HRP-linked antibodies (Cell Signaling Technology) were used. Blots were detected using Chemi-Lumi One Super (nacalai tesque, Inc.) and ChemiDoc™ XRS+ Imager (Bio-Rad Laboratories, Inc.), as recommended by the manufacturers. Protein levels were quantified with Image Lab Software (Bio-Rad Laboratories, Inc.).\nTo BV173 cells, MYL cells, SU-Ph2 cells, and SU/SR cells, 3 μM or 1 μM of Chb-M′ were administered. After 24 hours, proteins were extracted, and then subjected to the Western blotting method (see the above-described “Immunoblotting”) using an ABL antibody to confirm expressions of BCR-ABL fusion protein at protein levels. As a control, DMSO was administered."}, "p53 mutated cells": {"tested_on": "p53 mutated cells", "experiment": "Concomitant use with p53 inducer MIRA-1 in p53 mutated cells", "format": "cell-based, human", "settings": "compared with the PRIMA-1 experiments (synergistic inhibition)", "method": "We examined the effect of concomitant use of the conjugates and a p53 inducer. […] KG1a and HL60 cells are null for p53 (p53null cell lines). MV4-11NR, Kasumi-1 and THP-1 cells harbor mutated p53 (p53mut(+) cell lines).\nFurther, the same experiments were performed using a p53 inducer MIRA-1 and the same results were obtained. Although the PI polyamide conjugates of the present invention may greatly reduce their potency in p53 mutated cells (cancer cells harboring mutated p53 or no p53), concomitant use with a p53 inducer enables suppression of such p53 mutated cells."}, "HL60": {"tested_on": "HL60", "settings": "HL60, p53null; for IC50: 48 hours"}}, "note": "Read-outs that look alike come from different tables or passages of the source.", "data": [{"smiles": "CN(C)CCCNC(=O)c1cc(NC(=O)c2cc(NC(=O)c3cc(NC(=O)c4cc(NC(=O)CCCNC(=O)c5nc(NC(=O)c6nc(NC(=O)c7cc(NC(=O)c8nc(NC(=O)CCNC(=O)CCCc9ccc(N(CCCl)CCCl)cc9)cn8C)cn7C)cn6C)cn5C)cn4C)cn3C)cn2C)cn1C", "note": "[Chb-M′]", "values": [{"measurement": "Early apoptosis rates", "setting": "MYL cells", "value": "increased"}, {"measurement": "H&E staining of bone marrow", "setting": "MV4-11 cells", "value": "homogeneity was lost"}, {"measurement": "hCD45 staining of bone marrow (human leukemia cells)", "setting": "MV4-11 cells", "value": "most of the brown parts lost"}, {"measurement": "Cell surface expression of E-selectin (FACS)", "setting": "CD62E (E-selectin)", "value": "decrease"}, {"measurement": "mRNA level of p210BCR-ABL", "setting": "BCR-ABL gene; BV173 cells", "value": "decreased"}, {"measurement": "mRNA level of p210BCR-ABL", "setting": "BCR-ABL gene; MYL cells", "value": "decreased"}, {"measurement": "mRNA level of p190BCR-ABL", "setting": "BCR-ABL gene; SU-Ph2 cells", "value": "decreased"}, {"measurement": "mRNA level of p190BCR-ABL", "setting": "BCR-ABL gene; SU/SR cells", "value": "decreased"}, {"measurement": "IC50", "setting": "PC-3 cells", "value": 0.62, "unit": "µM"}, {"measurement": "IC50", "setting": "LNCaP cells", "value": 0.68, "unit": "µM"}, {"measurement": "p210BCR-ABL fusion protein", "setting": "BCR-ABL fusion protein; BV173 cells", "value": "lost"}, {"measurement": "p210BCR-ABL fusion protein", "setting": "BCR-ABL fusion protein; MYL cells", "value": "lost"}, {"measurement": "p190BCR-ABL fusion protein", "setting": "BCR-ABL fusion protein; SU-Ph2 cells", "value": "lost"}, {"measurement": "p190BCR-ABL fusion protein", "setting": "BCR-ABL fusion protein; SU/SR cells", "value": "lost"}, {"measurement": "Effect of concomitant use with p53 inducer MIRA-1 on cell proliferation", "setting": "p53 mutated cells", "value": "same results"}, {"measurement": "CI (Fa = 0.5)", "setting": "HL60; concomitant use of Chb-M′ and PRIMA-1, Chou-Talalay, CI<1 synergism", "value": 1.10}, {"measurement": "IC50", "setting": "HL60; read-out: IC50 (μM) of Chb-M′ in concomitant use with PRIMA-1 (5 μM), with 5 μM PRIMA-1", "value": 11.7, "unit": "µM"}, {"measurement": "IC50", "setting": "HL60; read-out: IC50 (μM) of Chb-M′ single agent administration", "value": 11.4, "unit": "µM"}]}]}
